Data reported in patent publication US20070160553A1, “Use of agents for the cosmetic treatment of keratin-containing material” (WELLA AG, priority 2004, published 2007).
Several values for one entry are separate records, joined by “and”; a condition that tells them apart may be missing. Identical values can stand only once. Like-named read-outs stand apart in the source and are kept apart here.

Assays:
[1] = Conventional hair-care effects (combability, luster, volume, friction); details: in appropriate formulations
From the text: This is in stark contrast to the known hair-care actions of other representatives of this class of substances, for example of betaine (trimethylammonioacetate) or carnitine [3-hydroxy-4-(trimethylammonio)butyric acid]. […] Other hair-care criteria such as an increase in hair volume or an improvement in the hair fullness or hair styling were also not observed.
Tests for determining the triboelectric properties have also shown that depending on the use concentration of compounds of formulas (I) and (II) the electrostatic chargability of hair was reduced. […] This is particularly surprising considering that in no comparative test did the formulation containing as active ingredient a compound of formula (I) and (II) show a reduction in the mechanical coefficient of friction. […] The protective function therefore is independent of the typical hair-care criteria and consists only of attenuating the effects of hair-damaging factors.

[2] = bleached hair, cycles until 63.2% of hairs are broken
From the text: The measurements of rubbing resistance make it possible to draw conclusions concerning the resistance of the hair to mechanical stresses. The measuring principle consists of exposing individual hair fibers to repeated (small) mechanical stresses and measuring the number of repeating cycles needed to make the material break. A higher number of stressing cycles indicates a higher resistance of the hair to mechanical stresses. The evaluation of the hair resistance test results, which initially consists only of determining the number of stressing cycles to hair breakage for each individual hair, is carried out by Weibull's reliability analysis. According to Weibull, the breakage frequency (here: hair breakage) can be described by the following equation: H=1−exp[−(x/Θ)]b linearized: lnln[1/(1−H)]=b(ln x)−b(ln Θ) H=breakage frequency (=cumulated hair breakage), normalized to 1 (1=100%) X=lifetime variable (=cycles to hair breakage) Θ=characteristic lifetime (number of cycles until 63.2% of the hairs are broken) b=shape parameter, slope of the fitted straight lines.
For the Weibull analysis, therefore, that data must be plotted as lnln(1/1−H) against Inx. After linear regression, the axial segment indicates b(ln Θ) and the slope gives b. The characteristic lifetime E is then obtained from exp[−(axial segment/slope)]. The longer the characteristic lifetime, the higher is the resistance of the hair to breakage.
Another important parameter for determining the condition of the hair or the degree of damage to the hair is the determination of the rubbing resistance as a measure of the mechanical weakening of the hair (see legend for FIG. 1) [sic].
To this end, after previous standardized bleaching, strands of human hair (of Caucasian origin), were subjected to the strongly weakening conditions of a permanent wave procedure or a hair tinting by standardized methods. Then, the ends of 20 individual hairs per sample, namely of 10 individual hairs per strand, were fastened to holders, and the rubbing resistance was measured.

[3] = active present in permanent wave products, compared to otherwise identically treated hair
From the text: Tear strength is viewed as a parameter for determining damage to hair; the higher the force needed to tear a hair, the better is the hair quality.

[4] = shampoo as in Example 6, 2.0 wt. % active; 20 hairs; control without active 12.0
Procedure: The determination of the tear strength of hair, which is an indicator of the structural integrity of the hair cortex and thus a measure of the degree of damage, was carried out by tensile-elongation measurements common for these purposes. From each hair strand we selected 20 individual hairs and determined the individual hair diameters with a computer-controlled laser micrometer. Then, by means of a tensile-elongation tester (MTT 160/600 Series Miniature Tensile Tester, Serial No. 600.95.05.001, supplied by DIA-STRON Ltd, England), the force needed to tear the individual hairs was measured.
From these individual tear strength measurements which because of the different hair diameters gave different values, the bundle tensile strength (BTS) was calculated by taking 0.08 mm for a hair diameter (average diameter). By including the hair density, finally, the conversion into the unit of bundle tensile strength (cN/tex) was performed. The higher the numerical value of the bundle tensile strength, the lower is the hair damage.

SMILES: C[N+](C)(C)CC(=O)[O-] [betaine, trimethylammonioacetate]
- combability [1]: pronounced improvement
- luster of the hair [1]: definitely improved

SMILES: C[n+]1cccc(C(=O)[O-])c1.Cl [1-Methylpyridinium-3-carboxylate hydrochloride]
- antistatic effect (preparation containing 1% as the hydrochloride): statistically probable antistatic effect

SMILES: C[n+]1cccc(C(=O)[O-])c1 [1-methylpyridinium-3-carboxylate]
- Characteristic Lifetime ([2]; hair tinting agent + 0.1% active): increase
- Characteristic Lifetime ([2]; hair tinting agent + 0.1% active, listed as 1-methylpyridium-3-carboxylate): 568
- Characteristic Lifetime ([2]; hair tinting agent + 1% active): even higher than those shown by the chemically untreated (unbleached, natural) hair
- Characteristic Lifetime ([2]; hair tinting agent + 1% active, listed as 1-methyl-pyridinium-3-carboxylate): further increase
- Characteristic Lifetime ([2]; hair tinting agent + 1% active, listed as 1-methylpyridium-3-carboxytate): 643
- Characteristic Lifetime ([2]; permanent wave formulation with 0.5% active, listed as 1-methylpyridium-3-carboxylate): 546
- hair strand volume after combing (electrostatic charge) (bleached strands, hair-treatment preparation with 0.5% active, 5 minutes, vs untreated control): obviously smaller volume than the untreated control hairs
- tear strength [3]: significant increase
- bundle tensile strength (BTS) [4]: 12.64±0.4 cN/tex and 12.64 cN/tex
